The record followed here is ChEMBL document CHEMBL1136548, “1,3,4 Trisubstituted pyrrolidine CCR5 receptor antagonists bearing 4-aminoheterocycle substituted piperidine side chains” (Bioorg Med Chem Lett, 2003).

In data set [1] the target is T1, C-C chemokine receptor type 5 (Homo sapiens, UniProt P51681). The experiment in a line: Displacement inhibition of 125-I labeled MIP-alpha from CCR5 receptor expressed on CHO cell membranes.
Target sequence in this assay (P51681 whole entry): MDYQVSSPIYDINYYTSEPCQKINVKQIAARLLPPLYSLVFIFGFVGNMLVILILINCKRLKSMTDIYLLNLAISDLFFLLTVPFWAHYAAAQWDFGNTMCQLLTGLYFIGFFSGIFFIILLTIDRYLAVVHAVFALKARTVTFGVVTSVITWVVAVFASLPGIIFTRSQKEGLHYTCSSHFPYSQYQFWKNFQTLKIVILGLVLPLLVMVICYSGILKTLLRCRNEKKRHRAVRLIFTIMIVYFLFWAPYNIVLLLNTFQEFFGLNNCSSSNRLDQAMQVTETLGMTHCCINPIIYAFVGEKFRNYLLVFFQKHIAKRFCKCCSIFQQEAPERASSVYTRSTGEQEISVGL
Data set [2] is described as follows: Bioavailability in rat. Conditions: in vivo; call rule not given here. Format: ADME, organism-based.
Data set [3] in a line: Pharmacokinetic parameter expressed as plasma clearance in rat. Format: ADME, organism-based. Conditions: read-out: Clp.
A short description of data set [4]: Maximum plasma concentration was evaluated in rat. Format: ADME, organism-based.
The target in data set [5] is T1, C-C chemokine receptor type 5. The experiment in a line: Inhibition over 48 hr of BAL strain HIV infection of HeLa Magi cells expressing CCR5; not active. It is filed as functional, cell-based.
Target sequence in this assay (P51681 whole entry): as above
For data set [6] the target is unchanged. The experiment in a line: Compound tested for inhibiting the displacement of 125-I labeled MIP-alpha from CCR5 receptor expressed on CHO cell membranes at 1000 nM.
Target sequence in this assay (P51681 whole entry, looked up): as the sequence (P51681 whole entry) above
Data set [7] has the same target. The experiment in a line: Inhibition over 48 hr of BAL strain HIV infection of HeLa Magi cells expressing CCR5; Not active. Format: functional, cell-based.
Target sequence in this assay (P51681 whole entry): as above
Data set [8] is described as follows: Half life was evaluated in rat. It is filed as ADME, organism-based. Conditions: in vivo.
Data set [9] is described as follows: Tested for antiviral activity in peripheral blood mononuclear cells (PBMC). Format: functional.
Data set [10] deals with T1, C-C chemokine receptor type 5. Kind of data set: Inhibition over 48 hr of BAL strain HIV infection of HeLa Magi cells expressing CCR5. It is filed as functional, cell-based.
Target sequence in this assay (P51681 whole entry, looked up): as the sequence (P51681 whole entry) above

The structures appear in SMILES notation.

In data set [1], `C=CCN(c1cccnc1)C1CCN(C[C@H]2CN(C(=O)C3CCCCC3)C[C@@H]2c2ccccc2)CC1` had an IC50 of 23 nM.
In data set [1], `CCCN(c1cccnc1)C1CCN(C[C@H]2CN([C@@H](C(=O)O)C3CCCCC3)C[C@@H]2c2ccccc2)CC1` showed an IC50 of 5 nM. This compound also had a bioavailability in data set [2] of 8%. For the same compound, the clearance in data set [3] stood at 106 mL/min/kg. Further, the peak level in data set [4] (Cmax) was 19 nM.
Turning to `C=CCN(c1ccncc1)C1CCN(C[C@H]2CN(C(=O)C3CCCCC3)C[C@@H]2c2ccccc2)CC1`, the 50% inhibitory concentration (IC50) is 66 nM in [1] and “Not Active” in data set [5].
Turning to `O=C(C1CCCCC1)N1C[C@H](CN2CCC(N(Cc3ccccc3)c3ccccn3)CC2)[C@@H](c2ccccc2)C1`, in data set [6], the inhibition was determined as 78%.
As for `C=CCN(c1ccccc1)C1CCN(C[C@H]2CN(C(=O)C3CCCCC3)C[C@@H]2c2ccccc2)CC1`, the IC50 was 42 nM in [1] and “Not Active” in data set [7].
`CCCN(c1ccccn1)C1CCN(C[C@H]2CN(C(=O)C3CCC3)C[C@@H]2c2ccccc2)CC1` returned a 50% inhibitory concentration (IC50) in data set [1] of 10 nM.
On to `CCCN(c1nccc(C(F)(F)F)n1)C1CCN(C[C@H]2CN([C@H](CC3CCC3)C(=O)O)C[C@@H]2c2cccc(F)c2)CC1`, for which the IC50 in [1] is 1.2 nM. Further, in data set [8], the half-life is 1.5 h. In [2], the bioavailability was 25%. Further, the clearance in data set [3] was 13 mL/min/kg. The compound also had a Cmax in [4] of 177 nM.
In data set [1], `CCCN(c1ccccn1)C1CCN(C[C@H]2CN(C(=O)N3CCCC3)C[C@@H]2c2ccccc2)CC1` had an IC50 of 9 nM.
Compound `CCCN(c1ncccn1)C1CCN(C[C@H]2CN([C@@H](C(=O)O)C3CCCCC3)C[C@@H]2c2cccc(F)c2)CC1` had an IC50 in data set [1] of 1.6 nM. This compound came in with a bioavailability in [2] of 20%. Moreover, in [3], the clearance came out at 13 mL/min/kg. In data set [4], the highest level (Cmax) was 140 nM.
For `CCCN(c1ccccn1)C1CCN(C[C@H]2CN([C@@H](C(=O)O)C3CCCCC3)C[C@@H]2c2ccccc2)CC1`, in that order: 3.9 nM, 20%, 53 mL/min/kg and 53 nM.
Take `O=C(C1CCCCC1)N1C[C@H](CN2CCC(N(CC3CC3)c3ccccn3)CC2)[C@@H](c2ccccc2)C1`: the IC50 in [1] came out at 9 nM. That is a single-digit nanomolar value.
The same measure, in the same setting: to `CCCN(c1nccc(OC)n1)C1CCN(C[C@H]2CN([C@H](CC3CCC3)C(=O)O)C[C@@H]2c2cccc(F)c2)CC1` belongs 0.8 nM.
`CCCN(c1ccncn1)C1CCN(C[C@H]2CN([C@H](CC3CCC3)C(=O)O)C[C@@H]2c2cccc(F)c2)CC1` registered an IC50 in data set [1] of 1.2 nM. Also, in [8], the half-life is 0.9 h. The clearance in data set [3] came out at 90 mL/min/kg.
As to `CCCN(c1ccccn1)C1CCN(C[C@H]2CN(C(=O)c3ccccc3Cl)C[C@@H]2c2ccccc2)CC1`, the concentration for half-maximal inhibition (IC50) in [1] came out at 14 nM.
Same read-out and setting: to `C=CCN(c1ccc(C(F)(F)F)cn1)C1CCN(C[C@H]2CN(C(=O)C3CCCCC3)C[C@@H]2c2ccccc2)CC1` belongs 21 nM.
As for `CCCCCCN(c1ccccn1)C1CCN(C[C@H]2CN(C(=O)C3CCCCC3)C[C@@H]2c2ccccc2)CC1`, in [6], the inhibition is 64%.
`CCN(c1ncccn1)C1CCN(C[C@H]2CN([C@H](CC3CCC3)C(=O)O)C[C@@H]2c2cccc(F)c2)CC1`: in data set [1], the IC50 was 1.5 nM. For the same compound, the half-life in data set [8] is 1.1 h. In [2], this compound yielded a bioavailability of 33%. Moreover, the clearance in [3] is 26 mL/min/kg. The compound further gave a Cmax in data set [4] of 210 nM.
Take `CCCN(c1ncccn1)C1CCN(C[C@H]2CN([C@@H](C(=O)O)C3CCCCC3)C[C@@H]2c2ccccc2)CC1`: the IC50 in [1] came to 6.6 nM. The compound also returned a bioavailability in [2] of 8%. In [3], the clearance stood at 17 mL/min/kg. For the same compound, in data set [4], the Cmax amounted to 49 nM.
In turn, `CCCN(c1ncc(F)cn1)C1CCN(C[C@H]2CN([C@H](CC3CCC3)C(=O)O)C[C@@H]2c2cccc(F)c2)CC1` came in with an IC50 in data set [1] of 0.4 nM.
Consider `CCCN(c1ncc(C(F)(F)F)cn1)C1CCN(C[C@H]2CN([C@H](CC3CCC3)C(=O)O)C[C@@H]2c2cccc(F)c2)CC1`, for which the IC50 in data set [1] came out at 0.5 nM. This compound gave a half-life in data set [8] of 2.8 h. This compound also had a bioavailability in data set [2] of 72%. Also, in [3], the clearance came to 9 mL/min/kg. In addition, the Cmax in [4] was determined as 433 nM.
`O=C(O)[C@@H](CC1CCC1)N1C[C@H](CN2CCC(N(CC3CC3)c3ncccn3)CC2)[C@@H](c2cccc(F)c2)C1` gave an IC50 in data set [1] of 1.1 nM. For the same compound, the half-life in data set [8] is 0.7 h. Besides, in data set [3], the clearance came to 28 mL/min/kg.
In data set [1], `CCCN(c1ccccn1)C1CCN(C[C@H]2CN(C(=O)C3CCCCC3)C[C@@H]2c2ccccc2)CC1` returned a 50% inhibitory concentration (IC50) of 12 nM.
Take `CCCN(c1cncnc1)C1CCN(C[C@H]2CN([C@H](CC3CCC3)C(=O)O)C[C@@H]2c2cccc(F)c2)CC1`: the IC50 in data set [1] was 1.7 nM. In data set [8], this compound had a half-life of 0.3 h. The compound also came in with a bioavailability in data set [2] of 8%. Moreover, in data set [3], the clearance stood at 81 mL/min/kg. The same compound returned a Cmax in data set [4] of 28 nM.
Regarding `C=CCN(c1ncccn1)C1CCN(C[C@H]2CN(C(=O)C3CCCCC3)C[C@@H]2c2ccccc2)CC1`, the half-inhibitory concentration (IC50) in [1] amounted to 12 nM.
Regarding `CCCN(c1ncccn1)C1CCN(C[C@H]2CN([C@H](CC3CCC3)C(=O)O)C[C@@H]2c2cccc(F)c2)CC1`, the IC50 in data set [1] stood at 1.8 nM. In data set [8], the half-life is 1.1 h. This compound also showed a bioavailability in data set [2] of 29%. Besides, the clearance in [3] was found to be 28 mL/min/kg. Further, the peak level in data set [4] (Cmax) was 256 nM.
On to `C=CCN(c1ccccn1)C1CCN(C[C@H]2CN(C(=O)C3CCCCC3)C[C@@H]2c2ccccc2)CC1`, for which the concentration for half-maximal inhibition (IC50) in data set [1] was 6 nM.
For `C=CCN(C(=O)OCc1ccc([N+](=O)[O-])cc1)C1CCN(C[C@H]2CN(C(=O)c3ccccc3Cl)C[C@@H]2c2ccccc2)CC1`, it took 31 nM to reach the 95% level in [9] (IC95). The 90% effect level in [10] (IC90) was put at 1 nM.

The term IC50 denotes the concentration at which inhibition is half-maximal. Low values mean greater potency in that assay, high ones weaker potency in that assay. In general, bioavailability refers to dose-corrected exposure relative to a reference, in per cent. A word on the Cmax: it is the highest concentration seen after dosing. One may read the inhibition as the percentage by which the read-out fell short of the control. Read a high inhibition as strong suppression. Usually half-life stands for the time in which the quantity being followed falls by half. Low values mean rapid decline, high ones slow decline. A word on the IC95: it is the point of the concentration-response curve where the effect stands at 95%. A low value points to greater potency. The IC90 is the point of the concentration-response curve where the effect stands at 90%.
